According to ChEMBL document CHEMBL1134042, “[Lys3]Didemnins as potential affinity ligands” (Bioorg Med Chem Lett, 2001):

Key:
[1] = Total growth inhibition of NCI-60 human tumor cells by the compound was evaluated; format: functional
[2] = Antiproliferative activity as 50% growth inhibition of NCI-60 human tumor cells; format: functional
[3] = Cell free protein biosynthesis inhibition activity was determined; format: functional, Homo sapiens
[4] = Cytotoxicity in NCI-60 human tumor cells; format: functional; details: read-out: LC50 (the source's name)

CC[C@H](C)[C@H]1NC(=O)[C@@H](NC(=O)[C@@H](CC(C)C)N(C)C(=O)[C@@H]2CCCN2C(=O)C(C)O)[C@@H](C)OC(=O)[C@H](Cc2ccc(OC)cc2)N(C)C(=O)[C@@H]2CCCN2C(=O)[C@H](CCCCN)NC(=O)[C@@H](C)C(=O)[C@H](C(C)C)OC(=O)C[C@@H]1O (some centres undefined)
TGI [1]: 22 µM
GI50 [2]: 6.4 µM
IC50 [3]: 154 µM
CC50 [4]: 25 µM
